Reference: paper PMC9532703, “A novel small molecule RK-019 inhibits FGFR2-amplification gastric cancer cell proliferation and induces apoptosis in vitro and in vivo” (Frontiers in Pharmacology, 2022)

Columns and labels:
Experiment in all cases: Kinase selectivity panel
Format in all cases: biochemical
Settings in all cases: read-out: Inhibition(%) @ 1 µM RK-019
[1] = target: T1, PI3 Kinase (p110a(E542K)/p85a)(h) (Homo sapiens, UniProt P42336, E542K)
T1 construct: purchased Eurofins Discovery Services (KinaseProfiler)
In short: (§1)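 The compound is tested at a fixed 1 µM in an in vitro binding assay based on competition at the ATP site of recombinant human kinase. Inhibition ratio is reported.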

TAK1(h) = target: T2, TAK1(h) (Homo sapiens, UniProt O43318)
T2 construct: purchased Eurofins Discovery Services (KinaseProfiler)
In short: as §1

MLCK(h) = target: T3, MLCK(h) (Homo sapiens, UniProt Q15746)
T3 construct: purchased Eurofins Discovery Services (KinaseProfiler)
In short: as §1

EphA4(h) = target: T4, EphA4(h) (Homo sapiens, UniProt P54764)
T4 construct: purchased Eurofins Discovery Services (KinaseProfiler)
In short: as §1

TTK(h) = target: T5, TTK(h) (Homo sapiens, UniProt P33981)
T5 construct: purchased Eurofins Discovery Services (KinaseProfiler)
In short: as §1

MAPK2(m) = target: T6, MAPK2(m) (Mus musculus, UniProt P63085)
T6 construct: purchased Eurofins Discovery Services (KinaseProfiler)

LKB1(h) = target: T7, LKB1(h) (Homo sapiens, UniProt Q15831)
T7 construct: purchased Eurofins Discovery Services (KinaseProfiler)
In short: as §1

PKD3(h) = target: T8, PKD3(h) (Homo sapiens, UniProt O94806)
T8 construct: purchased Eurofins Discovery Services (KinaseProfiler)
In short: as §1

WNK1(h) = target: T9, WNK1(h) (Homo sapiens, UniProt Q9H4A3)
T9 construct: purchased Eurofins Discovery Services (KinaseProfiler)
In short: as §1

PKCη(h) = target: T10, PKCη(h) (Homo sapiens, UniProt P24723)
T10 construct: purchased Eurofins Discovery Services (KinaseProfiler)
In short: as §1

TBK1(h) = target: T11, TBK1(h) (Homo sapiens, UniProt Q9UHD2)
T11 construct: purchased Eurofins Discovery Services (KinaseProfiler)
In short: as §1

SIK2(h) = target: T12, SIK2(h) (Homo sapiens, UniProt Q9H0K1)
T12 construct: purchased Eurofins Discovery Services (KinaseProfiler)
In short: as §1

EphB1(h) = target: T13, EphB1(h) (Homo sapiens, UniProt P54762)
T13 construct: purchased Eurofins Discovery Services (KinaseProfiler)
In short: as §1

Fms(Y969C)(h) = target: T14, Fms(Y969C)(h) (Homo sapiens, UniProt P07333, Y969C)
T14 construct: purchased Eurofins Discovery Services (KinaseProfiler)
In short: as §1

NEK7(h) = target: T15, NEK7(h) (Homo sapiens, UniProt Q8TDX7)
T15 construct: purchased Eurofins Discovery Services (KinaseProfiler)
In short: as §1

Syk(h) = target: T16, Syk(h) (Homo sapiens, UniProt P43405)
T16 construct: purchased Eurofins Discovery Services (KinaseProfiler)
In short: as §1

MAPKAP-K2(h) = target: T17, MAPKAP-K2(h) (Homo sapiens, UniProt P49137)
T17 construct: purchased Eurofins Discovery Services (KinaseProfiler)
In short: as §1

ATR/ATRIP(h) = target: T18, ATR/ATRIP(h) (Homo sapiens, UniProt Q13535)
T18 construct: purchased Eurofins Discovery Services (KinaseProfiler)
In short: as §1

PDHK2(h) = target: T19, PDHK2(h) (Homo sapiens, UniProt Q15119)
T19 construct: purchased Eurofins Discovery Services (KinaseProfiler)
In short: as §1

DRAK2(h) = target: T20, DRAK2(h) (Homo sapiens, UniProt O94768)
T20 construct: purchased Eurofins Discovery Services (KinaseProfiler)
In short: as §1

Flt1(h) = target: T21, Flt1(h) (Homo sapiens, UniProt P17948)
T21 construct: purchased Eurofins Discovery Services (KinaseProfiler)
In short: as §1

CK1γ1(h) = target: T22, CK1γ1(h) (Homo sapiens, UniProt Q9HCP0)
T22 construct: purchased Eurofins Discovery Services (KinaseProfiler)
In short: as §1

IRR(h) = target: T23, IRR(h) (Homo sapiens, UniProt P14616)
T23 construct: purchased Eurofins Discovery Services (KinaseProfiler)
In short: as §1

CSK(h) = target: T24, CSK(h) (Homo sapiens, UniProt P41240)
T24 construct: purchased Eurofins Discovery Services (KinaseProfiler)
In short: as §1

SIK3(h) = target: T25, SIK3(h) (Homo sapiens, UniProt Q9Y2K2)
T25 construct: purchased Eurofins Discovery Services (KinaseProfiler)
In short: as §1

PKA(h) = target: T26, PKA(h) (Homo sapiens, UniProt P17612)
T26 construct: purchased Eurofins Discovery Services (KinaseProfiler)
In short: as §1

TGFBR2(h) = target: T27, TGFBR2(h) (Homo sapiens, UniProt P37173)
T27 construct: purchased Eurofins Discovery Services (KinaseProfiler)
In short: as §1

MYLK2(h) = target: T28, MYLK2(h) (Homo sapiens, UniProt Q9H1R3)
T28 construct: purchased Eurofins Discovery Services (KinaseProfiler)
In short: as §1

Rsk4(h) = target: T29, Rsk4(h) (Homo sapiens, UniProt Q9UK32)
T29 construct: purchased Eurofins Discovery Services (KinaseProfiler)
In short: as §1

cSRC(h) = target: T30, cSRC(h) (Homo sapiens, UniProt P12931)
T30 construct: purchased Eurofins Discovery Services (KinaseProfiler)
In short: as §1

Rse(h) = target: T31, Rse(h) (Homo sapiens, UniProt Q06418)
T31 construct: purchased Eurofins Discovery Services (KinaseProfiler)
In short: as §1

CLK4(h) = target: T32, CLK4(h) (Homo sapiens, UniProt Q9HAZ1)
T32 construct: purchased Eurofins Discovery Services (KinaseProfiler)
In short: as §1

MEK2(h) = target: T33, MEK2(h) (Homo sapiens, UniProt P36507)
T33 construct: purchased Eurofins Discovery Services (KinaseProfiler)
In short: as §1

CaMKIδ(h) = target: T34, CaMKIδ(h) (Homo sapiens, UniProt Q8IU85)
T34 construct: purchased Eurofins Discovery Services (KinaseProfiler)
In short: as §1

ZAK(h) = target: T35, ZAK(h) (Homo sapiens, UniProt Q9NYL2)
T35 construct: purchased Eurofins Discovery Services (KinaseProfiler)
In short: as §1

BrSK2(h) = target: T36, BrSK2(h) (Homo sapiens, UniProt Q8IWQ3)
T36 construct: purchased Eurofins Discovery Services (KinaseProfiler)
In short: as §1

CHK2(I157T)(h) = target: T37, CHK2(I157T)(h) (Homo sapiens, UniProt O96017, I157T)
T37 construct: purchased Eurofins Discovery Services (KinaseProfiler)
In short: as §1

T34 sequence (Q8IU85 whole entry): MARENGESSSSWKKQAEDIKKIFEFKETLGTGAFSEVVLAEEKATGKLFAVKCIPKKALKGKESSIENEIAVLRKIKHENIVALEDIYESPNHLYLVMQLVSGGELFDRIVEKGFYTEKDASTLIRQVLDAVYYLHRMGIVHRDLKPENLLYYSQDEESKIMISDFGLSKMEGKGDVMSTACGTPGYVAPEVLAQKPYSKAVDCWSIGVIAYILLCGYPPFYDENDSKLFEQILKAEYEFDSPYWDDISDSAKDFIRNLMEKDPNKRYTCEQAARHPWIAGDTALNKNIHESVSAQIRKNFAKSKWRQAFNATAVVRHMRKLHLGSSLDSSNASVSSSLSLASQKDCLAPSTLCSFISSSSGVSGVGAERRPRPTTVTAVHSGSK
T10 sequence (P24723 whole entry): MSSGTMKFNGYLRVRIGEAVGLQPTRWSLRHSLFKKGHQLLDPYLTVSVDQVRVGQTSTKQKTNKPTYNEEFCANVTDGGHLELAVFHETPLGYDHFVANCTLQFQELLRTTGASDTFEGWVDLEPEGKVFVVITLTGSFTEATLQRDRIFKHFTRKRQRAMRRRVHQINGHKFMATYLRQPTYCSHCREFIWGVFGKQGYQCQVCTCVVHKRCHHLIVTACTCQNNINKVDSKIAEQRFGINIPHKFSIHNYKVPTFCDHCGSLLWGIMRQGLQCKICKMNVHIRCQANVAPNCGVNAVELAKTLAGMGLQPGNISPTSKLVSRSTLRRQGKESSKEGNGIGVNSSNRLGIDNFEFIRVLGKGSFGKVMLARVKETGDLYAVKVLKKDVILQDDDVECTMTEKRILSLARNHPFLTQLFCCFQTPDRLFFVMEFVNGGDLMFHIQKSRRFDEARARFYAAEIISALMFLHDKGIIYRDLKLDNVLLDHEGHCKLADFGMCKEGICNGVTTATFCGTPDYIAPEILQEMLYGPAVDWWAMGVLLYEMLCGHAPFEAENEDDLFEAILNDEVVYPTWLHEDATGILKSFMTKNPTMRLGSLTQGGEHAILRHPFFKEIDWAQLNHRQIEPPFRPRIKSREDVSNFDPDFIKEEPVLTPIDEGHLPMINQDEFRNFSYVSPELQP
T30 sequence (P12931 whole entry): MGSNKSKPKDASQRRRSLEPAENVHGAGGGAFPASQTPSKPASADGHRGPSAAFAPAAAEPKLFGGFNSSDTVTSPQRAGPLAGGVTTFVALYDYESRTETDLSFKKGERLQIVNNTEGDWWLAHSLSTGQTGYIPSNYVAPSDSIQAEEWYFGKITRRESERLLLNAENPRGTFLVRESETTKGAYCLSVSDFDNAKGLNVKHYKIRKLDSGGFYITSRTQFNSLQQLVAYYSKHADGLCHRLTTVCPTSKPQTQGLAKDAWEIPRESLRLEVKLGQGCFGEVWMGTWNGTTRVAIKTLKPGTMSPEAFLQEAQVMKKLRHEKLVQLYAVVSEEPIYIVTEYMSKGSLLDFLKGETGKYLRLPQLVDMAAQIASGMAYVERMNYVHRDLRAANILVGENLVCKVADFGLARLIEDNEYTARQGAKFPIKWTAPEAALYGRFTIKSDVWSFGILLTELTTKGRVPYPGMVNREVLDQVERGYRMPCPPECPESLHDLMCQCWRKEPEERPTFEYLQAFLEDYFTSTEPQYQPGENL
T37 sequence (O96017 whole entry I157T): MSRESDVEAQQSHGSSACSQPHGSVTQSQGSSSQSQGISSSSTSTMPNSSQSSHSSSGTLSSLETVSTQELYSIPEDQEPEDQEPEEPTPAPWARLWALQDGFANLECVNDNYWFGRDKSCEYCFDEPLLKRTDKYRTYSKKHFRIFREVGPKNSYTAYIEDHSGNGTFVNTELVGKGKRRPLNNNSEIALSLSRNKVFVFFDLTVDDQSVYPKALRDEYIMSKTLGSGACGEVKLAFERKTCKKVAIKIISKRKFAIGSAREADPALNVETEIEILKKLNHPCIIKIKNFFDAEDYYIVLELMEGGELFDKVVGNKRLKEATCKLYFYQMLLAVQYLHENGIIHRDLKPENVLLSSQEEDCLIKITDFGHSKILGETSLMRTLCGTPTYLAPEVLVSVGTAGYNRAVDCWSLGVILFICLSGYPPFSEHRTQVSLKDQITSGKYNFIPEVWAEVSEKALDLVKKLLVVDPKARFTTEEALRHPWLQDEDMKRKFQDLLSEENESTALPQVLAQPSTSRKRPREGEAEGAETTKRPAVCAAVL
T4 sequence (P54764 20-986): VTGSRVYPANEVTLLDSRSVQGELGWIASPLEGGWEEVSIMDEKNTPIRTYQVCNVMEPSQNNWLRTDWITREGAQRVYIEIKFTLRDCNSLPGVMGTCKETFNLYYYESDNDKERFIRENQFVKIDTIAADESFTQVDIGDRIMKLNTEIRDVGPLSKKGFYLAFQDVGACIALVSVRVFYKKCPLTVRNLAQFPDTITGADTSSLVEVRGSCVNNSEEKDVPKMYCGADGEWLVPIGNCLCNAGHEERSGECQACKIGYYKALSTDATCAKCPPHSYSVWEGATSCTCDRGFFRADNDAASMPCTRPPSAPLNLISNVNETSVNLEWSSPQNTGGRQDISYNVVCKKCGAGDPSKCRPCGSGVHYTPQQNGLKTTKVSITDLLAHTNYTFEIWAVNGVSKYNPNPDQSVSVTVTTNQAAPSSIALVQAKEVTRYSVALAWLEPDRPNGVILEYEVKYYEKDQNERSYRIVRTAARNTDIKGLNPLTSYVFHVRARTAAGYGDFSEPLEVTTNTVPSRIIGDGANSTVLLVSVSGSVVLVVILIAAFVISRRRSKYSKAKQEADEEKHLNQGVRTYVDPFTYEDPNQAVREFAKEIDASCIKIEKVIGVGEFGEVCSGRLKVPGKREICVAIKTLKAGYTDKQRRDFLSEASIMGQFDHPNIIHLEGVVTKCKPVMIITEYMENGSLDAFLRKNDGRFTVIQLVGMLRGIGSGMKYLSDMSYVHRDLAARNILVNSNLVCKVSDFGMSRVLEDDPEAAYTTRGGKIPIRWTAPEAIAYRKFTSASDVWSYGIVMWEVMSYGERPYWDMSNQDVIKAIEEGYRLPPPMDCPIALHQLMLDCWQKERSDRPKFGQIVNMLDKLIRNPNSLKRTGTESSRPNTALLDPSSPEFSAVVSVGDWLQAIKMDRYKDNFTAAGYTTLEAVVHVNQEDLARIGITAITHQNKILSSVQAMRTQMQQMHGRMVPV
T3 sequence (Q15746 whole entry): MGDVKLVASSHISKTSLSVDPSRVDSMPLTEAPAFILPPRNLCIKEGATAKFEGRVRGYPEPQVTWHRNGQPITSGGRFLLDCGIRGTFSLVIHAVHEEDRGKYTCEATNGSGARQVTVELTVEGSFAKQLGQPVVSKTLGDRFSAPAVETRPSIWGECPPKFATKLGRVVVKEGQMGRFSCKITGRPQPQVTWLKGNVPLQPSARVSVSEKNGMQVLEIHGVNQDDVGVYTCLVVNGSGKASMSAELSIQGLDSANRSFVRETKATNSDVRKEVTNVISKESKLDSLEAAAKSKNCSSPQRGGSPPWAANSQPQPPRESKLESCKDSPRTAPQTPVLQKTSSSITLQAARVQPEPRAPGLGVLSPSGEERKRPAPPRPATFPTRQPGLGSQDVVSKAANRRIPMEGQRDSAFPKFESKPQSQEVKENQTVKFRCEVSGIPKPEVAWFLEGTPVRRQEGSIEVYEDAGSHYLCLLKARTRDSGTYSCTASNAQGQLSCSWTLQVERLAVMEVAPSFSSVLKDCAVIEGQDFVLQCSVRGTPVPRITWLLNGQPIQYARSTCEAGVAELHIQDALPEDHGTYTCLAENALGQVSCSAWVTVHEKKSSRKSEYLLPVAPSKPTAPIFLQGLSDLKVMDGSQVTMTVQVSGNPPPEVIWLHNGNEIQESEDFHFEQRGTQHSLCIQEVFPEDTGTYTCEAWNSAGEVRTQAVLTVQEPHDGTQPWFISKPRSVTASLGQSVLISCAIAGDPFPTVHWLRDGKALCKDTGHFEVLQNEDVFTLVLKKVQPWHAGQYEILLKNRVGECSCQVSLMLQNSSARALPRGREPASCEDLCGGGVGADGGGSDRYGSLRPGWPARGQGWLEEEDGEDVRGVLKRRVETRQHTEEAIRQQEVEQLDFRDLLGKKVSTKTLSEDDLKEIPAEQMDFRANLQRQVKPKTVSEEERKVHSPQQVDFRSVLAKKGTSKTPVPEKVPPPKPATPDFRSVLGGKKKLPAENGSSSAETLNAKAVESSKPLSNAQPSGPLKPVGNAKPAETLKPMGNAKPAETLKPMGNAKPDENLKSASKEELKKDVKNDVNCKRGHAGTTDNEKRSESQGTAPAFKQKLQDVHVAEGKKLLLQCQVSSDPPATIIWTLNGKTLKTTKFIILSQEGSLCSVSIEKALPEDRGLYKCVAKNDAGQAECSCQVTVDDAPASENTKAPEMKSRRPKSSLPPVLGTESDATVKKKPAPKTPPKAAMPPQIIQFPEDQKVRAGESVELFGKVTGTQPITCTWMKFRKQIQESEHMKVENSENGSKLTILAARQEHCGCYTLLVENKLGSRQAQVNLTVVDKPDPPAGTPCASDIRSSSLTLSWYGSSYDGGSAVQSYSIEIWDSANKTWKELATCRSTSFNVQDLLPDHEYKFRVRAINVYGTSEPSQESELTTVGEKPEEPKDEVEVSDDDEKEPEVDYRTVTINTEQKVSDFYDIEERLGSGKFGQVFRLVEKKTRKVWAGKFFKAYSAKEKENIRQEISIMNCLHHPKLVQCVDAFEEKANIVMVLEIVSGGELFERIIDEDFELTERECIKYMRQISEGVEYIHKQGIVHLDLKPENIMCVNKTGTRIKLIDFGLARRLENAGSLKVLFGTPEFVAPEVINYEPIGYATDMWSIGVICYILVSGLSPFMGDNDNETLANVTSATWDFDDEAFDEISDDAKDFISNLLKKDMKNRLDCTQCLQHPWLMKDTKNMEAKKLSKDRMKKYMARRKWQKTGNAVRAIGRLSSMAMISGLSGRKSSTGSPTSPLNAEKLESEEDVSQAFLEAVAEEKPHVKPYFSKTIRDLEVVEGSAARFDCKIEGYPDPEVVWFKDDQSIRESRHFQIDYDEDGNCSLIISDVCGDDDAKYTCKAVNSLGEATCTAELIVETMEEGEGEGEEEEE

Question: How did the activity at 1 µM [1] turn out when `COc1cc(OC)cc(N(CCN[C@H](C)CO)c2ccc3ncc(-c4cnn(C)c4)c(=O)n3c2)c1` [RK-019, (R)-7-((3,5-dimethoxyphenyl) (2-((1-hydroxypropan-2-yl)amino)ethyl)amino)-3-(1-methyl-1H-pyrazol-4-yl)-4H-pyrido [1,2-a]pyrimidin-4-one] was run?
Answer: Its activity at 1 µM is 98%.

Question: What about the activity at 1 µM (TAK1(h)) of the same molecule?
Answer: The activity at 1 µM was 102%.

Question: What about the activity at 1 µM (MLCK(h)) of the same molecule?
Answer: The activity at 1 µM was 92%.

Question: And the activity at 1 µM (EphA4(h))?
Answer: The activity at 1 µM was 101%.

Question: What about the activity at 1 µM (TTK(h)) of the same molecule?
Answer: The activity at 1 µM was 98%.

Question: And the activity at 1 µM (MAPK2(m))?
Answer: The activity at 1 µM was 109%.

Question: What about the activity at 1 µM (LKB1(h)) of the same molecule?
Answer: Its activity at 1 µM is 94%.

Question: And the activity at 1 µM (PKD3(h))?
Answer: The activity at 1 µM was 99%.

Question: And the activity at 1 µM (WNK1(h))?
Answer: Its activity at 1 µM is 95%.

Question: What about the activity at 1 µM (PKCη(h)) of the same molecule?
Answer: Its activity at 1 µM is 108%.

Question: And the activity at 1 µM (TBK1(h))?
Answer: The activity at 1 µM was 101%.

Question: And the activity at 1 µM (SIK2(h))?
Answer: The activity at 1 µM was 99%.

Question: And the activity at 1 µM (EphB1(h))?
Answer: The activity at 1 µM was 58%.

Question: What about the activity at 1 µM (Fms(Y969C)(h)) of the same molecule?
Answer: Its activity at 1 µM is 31%.

Question: And the activity at 1 µM (NEK7(h))?
Answer: The activity at 1 µM was 99%.

Question: What about the activity at 1 µM (Syk(h)) of the same molecule?
Answer: The activity at 1 µM was 116%.

Question: What about the activity at 1 µM (MAPKAP-K2(h)) of the same molecule?
Answer: The activity at 1 µM was 121%.

Question: What about the activity at 1 µM (ATR/ATRIP(h)) of the same molecule?
Answer: Its activity at 1 µM is 107%.

Question: What about the activity at 1 µM (PDHK2(h)) of the same molecule?
Answer: Its activity at 1 µM is 104%.

Question: What about the activity at 1 µM (DRAK2(h)) of the same molecule?
Answer: The activity at 1 µM was 96%.

Question: And the activity at 1 µM (Flt1(h))?
Answer: Its activity at 1 µM is 29%.

Question: And the activity at 1 µM (CK1γ1(h))?
Answer: Its activity at 1 µM is 92%.

Question: What about the activity at 1 µM (IRR(h)) of the same molecule?
Answer: The activity at 1 µM was 104%.

Question: And the activity at 1 µM (CSK(h))?
Answer: The activity at 1 µM was 94%.

Question: And the activity at 1 µM (SIK3(h))?
Answer: Its activity at 1 µM is 104%.

Question: What about the activity at 1 µM (PKA(h)) of the same molecule?
Answer: Its activity at 1 µM is 94%.

Question: And the activity at 1 µM (TGFBR2(h))?
Answer: Its activity at 1 µM is 85%.

Question: And the activity at 1 µM (MYLK2(h))?
Answer: Its activity at 1 µM is 88%.

Question: And the activity at 1 µM (Rsk4(h))?
Answer: The activity at 1 µM was 146%.

Question: And the activity at 1 µM (cSRC(h))?
Answer: The activity at 1 µM was 54%.

Question: What about the activity at 1 µM (Rse(h)) of the same molecule?
Answer: Its activity at 1 µM is 104%.

Question: And the activity at 1 µM (CLK4(h))?
Answer: Its activity at 1 µM is 89%.

Question: What about the activity at 1 µM (MEK2(h)) of the same molecule?
Answer: The activity at 1 µM was 85%.

Question: What about the activity at 1 µM (CaMKIδ(h)) of the same molecule?
Answer: Its activity at 1 µM is 98%.

Question: What about the activity at 1 µM (ZAK(h)) of the same molecule?
Answer: The activity at 1 µM was 80%.

Question: What about the activity at 1 µM (BrSK2(h)) of the same molecule?
Answer: Its activity at 1 µM is 96%.

Question: What about the activity at 1 µM (CHK2(I157T)(h)) of the same molecule?
Answer: Its activity at 1 µM is 100%.
